Reference: PubChem BioAssay AID1963963 (Molecular Pharmacology Branch, DTP, NCI, 2024)
Each block holds one molecule with its values, some of them ahead of it.

Tested on: 958667-338-R-J2-PDC tumor spheroids viability
Test: Anticancer human tumor 958667-338-R-J2-PDC patient-derived colon adenocarcinoma cell line growth inhibition [PI3K]
Settings: spheroids with HUVEC and MSC; for IC50: curve of first compound; for viability, T/C: stronger effect = lower value
Method in brief: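 Agents were dosed from a top concentration near clinical Cmax (otherwise 10 microM) in half-log decrements, alone or combined with PI3K inhibitors. The spheroids contain tumor cells plus endothelial (HUVEC) and MSC stroma; viability is measured.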

[1] = second compound 0.0316 µM, first compound 0.0316 µM
[2] = second compound 0.0316 µM, first compound 0.1 µM
[3] = second compound 0.1 µM, first compound 0.0316 µM
[4] = second compound 0.1 µM, first compound 0.1 µM
[5] = second compound 0.316 µM, first compound 0.0316 µM
[6] = second compound 0.316 µM, first compound 0.1 µM
[7] = second compound 1 µM, first compound 0.0316 µM
[8] = second compound 1 µM, first compound 0.1 µM
[9] = second compound 3.16 µM, first compound 0.0316 µM
[10] = second compound 3.16 µM, first compound 0.1 µM
[11] = second compound 10 µM, first compound 0.0316 µM
[12] = second compound 10 µM, first compound 0.1 µM
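Note: spheroids exposed to compounds for seven days before readout.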

- IC50 (second compound 0.0316 µM): 0.0617 µM
- IC50 (second compound 0.1 µM): 0.0606 µM
- IC50 (second compound 0.316 µM): 0.0595 µM
- IC50 (second compound 1 µM): 0.0419 µM
- IC50 (second compound 3.16 µM): 0.0302 µM
- IC50 (second compound 10 µM): 0.0022 µM
Compound: CC(C)n1nc(-c2ccc3oc(N)nc3c2)c2c(N)ncnc21 + Cc1nc(NC(=O)N2CCCC2C(N)=O)sc1-c1ccnc(C(C)(C)C(F)(F)F)c1
- viability, T/C (second compound 0.0316 µM, first compound 0.000316 µM): 94%
- viability, T/C (second compound 0.0316 µM, first compound 0.001 µM): 91.7%
- viability, T/C (second compound 0.0316 µM, first compound 0.00316 µM): 80.9%
- viability, T/C (second compound 0.0316 µM, first compound 0.01 µM): 77.8%
- viability, T/C [1]: 61.1%
- viability, T/C [2]: 41.4%
- viability, T/C (second compound 0.1 µM, first compound 0.000316 µM): 102%
- viability, T/C (second compound 0.1 µM, first compound 0.001 µM): 85.8%
- viability, T/C (second compound 0.1 µM, first compound 0.00316 µM): 108%
- viability, T/C (second compound 0.1 µM, first compound 0.01 µM): 73.7%
- viability, T/C [3]: 76.5%
- viability, T/C [4]: 33.1%
- viability, T/C (second compound 0.316 µM, first compound 0.000316 µM): 77.3%
- viability, T/C (second compound 0.316 µM, first compound 0.001 µM): 89.3%
- viability, T/C (second compound 0.316 µM, first compound 0.00316 µM): 80.5%
- viability, T/C (second compound 0.316 µM, first compound 0.01 µM): 82.2%
- viability, T/C [5]: 71.5%
- viability, T/C [6]: 32%
- viability, T/C (second compound 1 µM, first compound 0.000316 µM): 70%
- viability, T/C (second compound 1 µM, first compound 0.001 µM): 68.1%
- viability, T/C (second compound 1 µM, first compound 0.00316 µM): 74.5%
- viability, T/C (second compound 1 µM, first compound 0.01 µM): 79%
- viability, T/C [7]: 56%
- viability, T/C [8]: 31.4%
- viability, T/C (second compound 3.16 µM, first compound 0.000316 µM): 72%
- viability, T/C (second compound 3.16 µM, first compound 0.001 µM): 73.8%
- viability, T/C (second compound 3.16 µM, first compound 0.00316 µM): 73.2%
- viability, T/C (second compound 3.16 µM, first compound 0.01 µM): 57.5%
- viability, T/C [9]: 52%
- viability, T/C [10]: 24.3%
- viability, T/C (second compound 10 µM, first compound 0.000316 µM): 56%
- viability, T/C (second compound 10 µM, first compound 0.001 µM): 51.5%
- viability, T/C (second compound 10 µM, first compound 0.00316 µM): 39.8%
- viability, T/C (second compound 10 µM, first compound 0.01 µM): 52.9%
- viability, T/C [11]: 34.3%
- viability, T/C [12]: 21.1%

- IC50 (second compound 0.0316 µM): 7.01 µM
- IC50 (second compound 0.1 µM): 6.73 µM
- IC50 (second compound 0.316 µM): 6.72 µM
- IC50 (second compound 1 µM): 6.91 µM
- IC50 (second compound 3.16 µM): 5.32 µM
- IC50 (second compound 10 µM): 4.21 µM
Compound: CC1(C)CCC(CN2CCN(c3ccc(C(=O)NS(=O)(=O)c4ccc(NCC5CCOCC5)c([N+](=O)[O-])c4)c(Oc4cnc5[nH]ccc5c4)c3)CC2)=C(c2ccc(Cl)cc2)C1 + Cc1nc(NC(=O)N2CCCC2C(N)=O)sc1-c1ccnc(C(C)(C)C(F)(F)F)c1
- viability, T/C [1]: 88.8%
- viability, T/C [2]: 95%
- viability, T/C (second compound 0.0316 µM, first compound 0.316 µM): 83.5%
- viability, T/C (second compound 0.0316 µM, first compound 1 µM): 123%
- viability, T/C (second compound 0.0316 µM, first compound 3.16 µM): 97.1%
- viability, T/C (second compound 0.0316 µM, first compound 10 µM): 29.1%
- viability, T/C [3]: 90.4%
- viability, T/C [4]: 93.2%
- viability, T/C (second compound 0.1 µM, first compound 0.316 µM): 99.4%
- viability, T/C (second compound 0.1 µM, first compound 1 µM): 99.8%
- viability, T/C (second compound 0.1 µM, first compound 3.16 µM): 107%
- viability, T/C (second compound 0.1 µM, first compound 10 µM): 24.8%
- viability, T/C [5]: 93.3%
- viability, T/C [6]: 85.8%
- viability, T/C (second compound 0.316 µM, first compound 0.316 µM): 104%
- viability, T/C (second compound 0.316 µM, first compound 1 µM): 99%
- viability, T/C (second compound 0.316 µM, first compound 3.16 µM): 98.5%
- viability, T/C (second compound 0.316 µM, first compound 10 µM): 25.7%
- viability, T/C [7]: 88.9%
- viability, T/C [8]: 72.6%
- viability, T/C (second compound 1 µM, first compound 0.316 µM): 93.3%
- viability, T/C (second compound 1 µM, first compound 1 µM): 87.6%
- viability, T/C (second compound 1 µM, first compound 3.16 µM): 91.1%
- viability, T/C (second compound 1 µM, first compound 10 µM): 32.5%
- viability, T/C [9]: 89.3%
- viability, T/C [10]: 76.8%
- viability, T/C (second compound 3.16 µM, first compound 0.316 µM): 67%
- viability, T/C (second compound 3.16 µM, first compound 1 µM): 76.5%
- viability, T/C (second compound 3.16 µM, first compound 3.16 µM): 66.6%
- viability, T/C (second compound 3.16 µM, first compound 10 µM): 31.4%
- viability, T/C [11]: 65.7%
- viability, T/C [12]: 64.6%
- viability, T/C (second compound 10 µM, first compound 0.316 µM): 55.8%
- viability, T/C (second compound 10 µM, first compound 1 µM): 61.5%
- viability, T/C (second compound 10 µM, first compound 3.16 µM): 65.7%
- viability, T/C (second compound 10 µM, first compound 10 µM): 12%
